Values after ≈ are worked out from the molar mass of the structure shown. Read-outs that look alike come from different tables or passages of the source. Marks after values point to notes of the source that are not given here.
Experiments:
[1] = system: Staphylococcus epidermidis
gram-negative bacteria = experiment: MIC, microtiter dilution, Gram-negative bacteria (geometric mean of 6 strains); type: cell-based; conditions: geometric mean of MIC values from all 6 Gram-negative strains of Table 11
Protocol: (§1) The geometric mean MIC values from 6 microbial strains in this table were calculated to provide an overall evaluation of antimicrobial activity against gram-negative bacteria.
In Table 11, geometric mean MIC was calculated to provide an overall view of antimicrobial activity of the peptides against Gram-negative bacteria and was also used to calculate the therapeutic index.
(§2) Measurement of Antimicrobial Activity—Minimal inhibitory concentrations (MICs) were determined using a standard microtiter dilution method in LB (Luria-Bertani) no-salt medium (10 g of tryptone and 5 g of yeast extract per liter). Briefly, cells were grown overnight at 37° C. in LB and diluted in the same medium. […] Plates were incubated at 37° C. for 24 hours and MICs determined as the lowest peptide concentration that inhibited growth. Alternatively, minimal inhibitory concentrations were determined using a standard microtiter dilution method in a Mueller-Hinton (MH) medium. Briefly, cells were grown overnight at 37° C. in MH broth and diluted in the same medium. […] Plates were incubated at 37° C. for 24 hours and MICs determined as the lowest peptide concentration that inhibited growth. However, for MIC determination of Pseudomonas aeruginosa clinical isolates, brain heart infusion (BH1) medium was used instead of MH broth. In addition, the bacteria were diluted to a final inoculum of 1×10^6 colony-forming units/ml.

human erythrocytes = experiment: Hemolytic activity (MHC), Protocol B, 18 hours; conditions: for MHC (μg/ml) hRBC: maximal peptide concentration with no hemolysis after 18 hours
Protocol: In order to evaluate the biological activities of the D-enantiomeric peptides, namely D-NAL and D-NKD, the hemolytic activity of the peptides against human erythrocytes was determined as the maximal peptide concentration that produces no hemolysis after 18 hours of incubation at 37° C.
Measurement of Hemolytic Activity—Protocol A: Peptide samples were added to 1% human erythrocytes in phosphate buffered saline (0.08M NaCl; 0.043M Na2PO4; 0.011M KH2PO4) and reactions were incubated at 37° C. for 12 hours in microtiter plates. Peptide samples were diluted 2 fold in order to determine the concentration that produced no hemolysis. […] Hemoglobin release was determined spectrophotometrically at 562 nm. The hemolytic titer was the highest 2-fold dilution of the peptide that still caused release of hemoglobin from erythrocytes. The control for no release of hemoglobin was a sample of 1% erythrocytes without any peptide added. […] Peptide samples were diluted 2 fold in order to determine the concentration that produced no hemolysis. […] Hemoglobin release was determined spectrophotometrically at 570 nm. The hemolytic titer was the highest 2-fold dilution of the peptide that still caused release of hemoglobin from erythrocytes. The control for no release of hemoglobin was a sample of 1% erythrocytes without any peptide added.

[2] = Protocol: as §1, §2
[3] = system: E. coli (UB 1005 wt and DC2 abs); conditions: for MIC (μg/ml) E. coli C500 abs: antibiotic sensitive strain; for MIC (μg/ml) E. coli C498 wt: wild-type lab strain
Protocol: as §1, §2

P. aeruginosa H187 wt = system: P. aeruginosa H187 wt
Protocol: as §1, §2

S. typhimurium C610 abs = system: S. typhimurium C610 abs
Protocol: as §1, §2

gram-positive bacteria = system: gram-positive bacteria
Protocol: as §2

E. faecalis = system: E. faecalis
Protocol: as §2

C. albicans = conditions: fungus
Protocol: as §2

[4] = system: Pseudomonas aeruginosa strains; conditions: for MIC PAK: strain PAK; for MIC PAO 1: strain PAO 1
Protocol: Pseudomonas aeruginosa strains used in this study are a diverse group of clinical isolates from different places in the world. […] The geometric mean MIC values from six Pseudomonas aeruginosa strains were calculated to provide an overall evaluation of antimicrobial activity of these peptides against Pseudomonas aeruginosa. Fold improvement was calculated by comparing the geometric mean MIC value of each peptide to that of the parent peptide V681.
as §2
For the Leu-substituted peptides, the hemolytic activity against human erythrocytes was determined as the maximal peptide concentration that produces no hemolysis after 18 hours of incubation at 37° C. Antimicrobial activity of the peptides was determined on a diverse group of Pseudomonas aeruginosa clinical isolates. […] The geometric mean MIC values from six Pseudomonas strains in Table 14 were calculated to provide an overall evaluation of antimicrobial activity of the peptides with different hydrophobicities.

Structure (SMILES): CC[C@@H](C)[C@@H](NC(=O)[C@@H](C)NC(=O)[C@@H](CCCCN)NC(=O)[C@@H](CC(C)C)NC(=O)[C@@H](C)NC(=O)[C@H](NC(=O)[C@@H](Cc1c[nH]cn1)NC(=O)[C@@H](CC(C)C)NC(=O)[C@H](NC(=O)[C@H](NC(=O)[C@@H](CCCCN)NC(=O)[C@@H](CCCCN)NC(=O)[C@@H](C)NC(=O)[C@@H](CO)NC(=O)[C@@H](CCCCN)NC(=O)[C@@H](Cc1ccccc1)NC(=O)[C@H](NC(=O)[C@@H](CCCCN)NC(=O)[C@@H](CC(C)C)NC(=O)[C@@H](Cc1ccccc1)NC(=O)[C@@H](CO)NC(=O)[C@@H](CCCCN)NC(=O)[C@@H](Cc1c[nH]c2ccccc12)NC(=O)[C@@H](CCCCN)NC(C)=O)[C@H](C)O)[C@H](C)O)C(C)C)[C@H](C)O)C(=O)N[C@H](CO)C(=O)N[C@H](CO)C(N)=O [D-NKD]
- MIC (μg/ml) S. epidermidis C621 wt [1]: 3.1 µg/mL (≈ 1.04 µM)
- MIC (μg/ml) GM (gram-negative bacteria): 3.9 µg/mL (≈ 1.3 µM)
- MIC (μg/ml) S. aureus 622 wt (Staphylococcus aureus): 6.3 µg/mL (≈ 2.11 µM)
- MIC (μg/ml) S. aureus 623 methR (Staphylococcus aureus): 6.3 µg/mL (≈ 2.11 µM)
- Hemolytic activity Fold (human erythrocytes; fold decrease in hemolytic activity compared to V681, 18 hours): 32
- Hemolytic activity MHC (human erythrocytes; maximal peptide concentration producing no hemolysis after 18 hours, 37° C.): 250.0^h μg/ml
- MHC (μg/ml) hRBC (human erythrocytes; Table 11): 250.0^h μg/ml
- MHC (μg/ml) hRBC (human erythrocytes; Table 12): 250.0^h μg/ml
- MIC (μg/ml) St C587 wt ([2]; Salmonella typhimurium wild-type lab strain): 6.3 µg/mL (≈ 2.11 µM)
- MIC (μg/ml) E. coli C500 abs [3]: 3.1 µg/mL (≈ 1.04 µM)
- MIC (μg/ml) E. coli C498 wt [3]: 3.1 µg/mL (≈ 1.04 µM)
- MIC (μg/ml) Pa H188 abs (P. aeruginosa H187 wt; Pseudomonas aeruginosa antibiotic sensitive strain): 3.1 µg/mL (≈ 1.04 µM)
- MIC (μg/ml) Pa H187 wt (P. aeruginosa H187 wt; Pseudomonas aeruginosa wild-type lab strain): 6.3 µg/mL (≈ 2.11 µM)
- MIC (μg/ml) St C610 abs (S. typhimurium C610 abs; Salmonella typhimurium antibiotic sensitive strain): 3.1 µg/mL (≈ 1.04 µM)
- MIC (μg/ml) C. xerosis C875 wt (Corynebacterium xerosis): 1.6 µg/mL (≈ 0.535 µM)
- MIC (μg/ml) B. subtilis C971 wt (Bacillus subtilis): 1.6 µg/mL (≈ 0.535 µM)
- MIC (μg/ml) GM (gram-positive bacteria; geometric mean of MIC values from all 6 gram-positive strains of Table 12): 4.0 µg/mL (≈ 1.34 µM)
- MIC (μg/ml) E. faecalis C625 wt (E. faecalis; wild type strain): 12.5 µg/mL (≈ 4.18 µM)
- MIC (μg/ml) C. albicans (C. albicans): 25.0 µg/mL (≈ 8.36 µM)
- MIC GM ([4]; geometric mean of six Pseudomonas aeruginosa clinical isolates): 31.2 µg/mL (≈ 10.4 µM)
- MIC CP 204 ([4]; strain CP 204): 15.6 µg/mL (≈ 5.22 µM)
- MIC M 2 ([4]; strain M 2): 31.3 µg/mL (≈ 10.5 µM)
- MIC PA 14 ([4]; strain PA 14): 15.6 µg/mL (≈ 5.22 µM)
- MIC PAK [4]: 125.0 µg/mL (≈ 41.8 µM)
- MIC PAO 1 [4]: 15.6 µg/mL (≈ 5.22 µM)
- MIC WR 5 ([4]; strain WR 5): 62.5 µg/mL (≈ 20.9 µM)

Structure (SMILES): CC[C@@H](C)[C@@H](NC(=O)[C@@H](C)NC(=O)[C@@H](CCCCN)NC(=O)[C@@H](CC(C)C)NC(=O)[C@@H](C)NC(=O)[C@H](NC(=O)[C@@H](Cc1c[nH]cn1)NC(=O)[C@@H](CC(C)C)NC(=O)[C@H](NC(=O)[C@H](NC(=O)[C@@H](CCCCN)NC(=O)[C@H](NC(=O)[C@@H](C)NC(=O)[C@@H](CO)NC(=O)[C@@H](CCCCN)NC(=O)[C@@H](Cc1ccccc1)NC(=O)[C@H](NC(=O)[C@@H](CCCCN)NC(=O)[C@@H](CC(C)C)NC(=O)[C@@H](Cc1ccccc1)NC(=O)[C@@H](CO)NC(=O)[C@@H](CCCCN)NC(=O)[C@@H](Cc1c[nH]c2ccccc12)NC(=O)[C@@H](CCCCN)NC(C)=O)[C@H](C)O)C(C)C)[C@H](C)O)C(C)C)[C@H](C)O)C(=O)N[C@H](CO)C(=O)N[C@H](CO)C(N)=O [D-V681]
- MIC (μg/ml) S. epidermidis C621 wt [1]: 1.6 µg/mL (≈ 0.54 µM)
- MIC (μg/ml) GM (gram-negative bacteria): 6.3 µg/mL (≈ 2.13 µM)
- MIC (μg/ml) S. aureus 623 methR (Staphylococcus aureus; methicillin-resistant clinical strain): 6.3 µg/mL (≈ 2.13 µM)
- MIC (μg/ml) S. aureus 622 wt (Staphylococcus aureus; wild type strain): 6.3 µg/mL (≈ 2.13 µM)
- MHC (μg/ml) hRBC (human erythrocytes; Table 11): 7.8 µg/mL
- MHC (μg/ml) hRBC (human erythrocytes; Table 12): 7.8 µg/mL
- Hemolytic activity MHC (human erythrocytes; red cells of human, 18 h): 7.8 µg/mL
- MIC (μg/ml) St C587 wt ([2]; C610 abs): 12.5 µg/mL (≈ 4.22 µM)
- MIC (μg/ml) E. coli C500 abs [3]: 3.1 µg/mL (≈ 1.05 µM)
- MIC (μg/ml) E. coli C498 wt [3]: 6.3 µg/mL (≈ 2.13 µM)
- MIC (μg/ml) Pa H188 abs (P. aeruginosa H187 wt): 6.3 µg/mL (≈ 2.13 µM)
- MIC (μg/ml) Pa H187 wt (P. aeruginosa H187 wt; H187 wt): 6.3 µg/mL (≈ 2.13 µM)
- MIC (μg/ml) St C610 abs (S. typhimurium C610 abs; C610 abs): 6.3 µg/mL (≈ 2.13 µM)
- MIC (μg/ml) C. xerosis C875 wt (Corynebacterium xerosis): 3.1 µg/mL (≈ 1.05 µM)
- MIC (μg/ml) B. subtilis C971 wt (Bacillus subtilis): 1.6 µg/mL (≈ 0.54 µM)
- MIC (μg/ml) GM (gram-positive bacteria): 3.5 µg/mL (≈ 1.18 µM)
- MIC (μg/ml) E. faecalis C625 wt (E. faecalis): 6.3 µg/mL (≈ 2.13 µM)
- MIC PAK [4]: 31.3 µg/mL (≈ 10.6 µM)
- MIC PAO 1 [4]: 15.6 µg/mL (≈ 5.27 µM)

Source: patent US8252737B2, “Antimicrobial peptides and methods of use” (priority 2004, dated 2012)
